According to publication PMC8222254, “Self-assembly of an anion receptor with metal-dependent kinase inhibition and potent in vitro anti-cancer properties” (Nature Communications, 2021):
Where “and” joins values, the source holds several entries; their conditions need not be identical. Equal entries are not always repeated.

Assays:
HCT116 p53+/+ = experiment: Confocal imaging of autophagic cells (CYTO-ID); assay type: cell-based, human; conditions: 3.125 µM, 40 h
Procedure: Cells were seeded in Lumox chamber slides (8-well, Sarstedt) at a density of 1.25 × 10^4 cells/well (ARPE-19) or 5.625 × 10^4 cells/well (HCT116 p53^−/− and HCT116 p53^+/+). 24 h after seeding, cells were treated with 3.125 μM of [L2Cu3]^6+, [L2Zn3]^6+, [L2Mn3]^6+, or vehicle control for 40 h before removal and addition of CYTO-ID Green autophagic dye (1:500 dilution, Enzo Life Sciences) and Hoechst 3342 nuclear counter stain for 30 min at 37 °C. Media was then replaced before imaging using a Zeiss LSM880 confocal laser scanning microscope.

[1] = target: T1, 140 purified human kinases (Homo sapiens, UniProt Q8IW41); experiment: Kinase inhibition screen, cell-free 33P ATP assay at 10 μM; assay type: biochemical; conditions: PRAK
T1 sequence (Q8IW41 1-473): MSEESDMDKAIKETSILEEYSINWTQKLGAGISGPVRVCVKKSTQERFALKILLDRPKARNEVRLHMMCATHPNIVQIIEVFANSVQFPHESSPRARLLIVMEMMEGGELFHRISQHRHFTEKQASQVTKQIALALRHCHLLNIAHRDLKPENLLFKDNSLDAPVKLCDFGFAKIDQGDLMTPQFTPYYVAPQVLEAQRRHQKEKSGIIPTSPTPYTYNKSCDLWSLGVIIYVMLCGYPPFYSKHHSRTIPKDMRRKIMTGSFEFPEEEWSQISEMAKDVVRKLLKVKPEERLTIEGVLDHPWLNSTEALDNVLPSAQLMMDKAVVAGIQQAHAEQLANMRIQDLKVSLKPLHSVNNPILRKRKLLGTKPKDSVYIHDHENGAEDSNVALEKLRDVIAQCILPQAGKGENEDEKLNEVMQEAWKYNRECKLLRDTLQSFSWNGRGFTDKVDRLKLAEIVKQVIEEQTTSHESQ
Procedure: [L2Cu3]^6+ and [L2Zn3]^6+ were submitted to the MRC Protein Phosphorylation and Ubiquitination Unit International Centre for Kinase Profiling (University of Dundee) and tested in duplicate (at 10 μM) against a series of 140 purified human kinases in a cell-free kinase assay using ^33P ATP[55],[56]. The kinase gene IDs from the screen were then translated into common IDs (HGNC symbol) using biomaRt package[57],[58] in R[59] and R Studio[60] and used as input to the KinMap programme.

[2] = target: T2, recombinant human AMPK (α1β2γ1) (Homo sapiens, UniProt Q13131); experiment: ATP competition kinase assay; assay type: biochemical
T2 construct: purchased Promega
Procedure: ATP competition kinase assays were performed by the MRC Protein Phosphorylation and Ubiquitination Unit International Centre for Kinase Profiling (University of Dundee). Inhibition of recombinant human AMPK (α1β2γ1) by 10μM [L2Cu3]^6+ or [L2Zn3]^6+ was evaluated at five different ATP concentrations (0.5, 2, 20, 200 and 500 µM ATP). Substrate competition assays were performed using the ADP-Glo Kinase Assay (Promega) and recombinant human AMPK (α1β2γ1) (Promega) with concentrations of the provided AMPK substrate (SAMStide substrate, Promega) ranging from 1 to 15 mg/ml. Following pre-incubation of substrate with kinase for 5 min 10 µM [L2Cu3]^6+, [L2Zn3]^6+ or solvent control and 50 µM ATP was added to start the kinase reaction. For determination of the effects of AMP on AMPK inhibition by [L2Zn3]^6+, the ADP-Glo Kinase Assay (Promega) was performed in presence of varying of AMP (0, 80, 160 μM).

[3] = target: recombinant human AMPK (pT172 AMPKα1, pS108 AMPKβ1) (Homo sapiens, UniProt Q13131); experiment: In vitro phosphatase assay with recombinant kinase, immunoblotting; assay type: biochemical; conditions: 50 μM complex, 4 h, with ATP
Procedure: 800 ng of purified recombinant human AMPK (α1β2γ1) or Src kinase (MRC PPU, International Centre for Kinase Profiling, University of Dundee) was incubated with 50 μM [L2Cu3]^6+, [L2Zn3]^6+, or vehicle control in 50 mM Tris HCl pH 7.5 containing 50 μM ATP for 4 h at 37 °C. For [L2Zn3]^6+ time course and concentration titration experiments, 800 ng recombinant human AMPK was used (α1β2γ1 AMPK isoform for pT172 AMPKα1 detection or α2β1γ1 AMPK isoform for pS108 AMPKβ1 detection). For evaluation of ATP dependency and influence of AMP, 50 µM ATP was replaced with 50 µM AMP or omitted. Reactions were stopped by addition of Laemmli’s buffer (Biorad) to 1x and heating at 95 °C for 5 min before analysis by SDS PAGE and immunoblotting for detection of specific phosphorylated amino acids of AMPK and Src proteins.
Protein lysates and recombinant proteins were resolved on 15% SDS polyacrylamide gels. Proteins were electroblotted onto nitrocellulose membrane by wet transfer in 1xTris Glycine buffer (Biorad) at 35 mA overnight at room temperature. After blocking of membranes, these were incubated with primary antibody overnight at 4 °C before addition of rabbit or mouse secondary antibody (HRP-conjugated; 1:5000, Dako P0448 or P0260) for 1 h at room temperature and development of blots by enhanced chemiluminescence. Primary antibodies were: anti-Src (total) (Cell Signalling Technology #2123 1:1000), anti-phosphorylated Src (Y527) (Cell Signalling Technology #21055 1:1000), anti-phosphorylated Src (Y416) (Cell Signalling Technology #69435 1:1000), anti-AMPKα (total) (Cell Signalling Technology #2532 1:1000), anti-phosphorylated AMPKα (T172) (Cell Signalling Technology #2535 1:1000), anti-AMPKβ1 (total) (Cell Signalling Technology #4150 1:1000), anti-phosphorylated AMPKβ1 (S108) (abcam ab156890 1:500), anti-phospho-Tyr (pan) (Cell Signalling Technology #8954 1:2000), anti-p53 (Santa Cruz, DO-1 clone, 1:1000,), anti-phosphorylated LDH-A (Y10) (Cell Signalling Technology #8176 1:1000), anti-LDH-A/B (total) (abcam ab134187 1:5000), anti-β-actin (Merck MAB1501, 1:40,000). Quantification of signals was performed by densitometry using Image J software. Uncropped and unprocessed scans are provided in the Source Data file.

T2 sequence (Q13131 whole entry): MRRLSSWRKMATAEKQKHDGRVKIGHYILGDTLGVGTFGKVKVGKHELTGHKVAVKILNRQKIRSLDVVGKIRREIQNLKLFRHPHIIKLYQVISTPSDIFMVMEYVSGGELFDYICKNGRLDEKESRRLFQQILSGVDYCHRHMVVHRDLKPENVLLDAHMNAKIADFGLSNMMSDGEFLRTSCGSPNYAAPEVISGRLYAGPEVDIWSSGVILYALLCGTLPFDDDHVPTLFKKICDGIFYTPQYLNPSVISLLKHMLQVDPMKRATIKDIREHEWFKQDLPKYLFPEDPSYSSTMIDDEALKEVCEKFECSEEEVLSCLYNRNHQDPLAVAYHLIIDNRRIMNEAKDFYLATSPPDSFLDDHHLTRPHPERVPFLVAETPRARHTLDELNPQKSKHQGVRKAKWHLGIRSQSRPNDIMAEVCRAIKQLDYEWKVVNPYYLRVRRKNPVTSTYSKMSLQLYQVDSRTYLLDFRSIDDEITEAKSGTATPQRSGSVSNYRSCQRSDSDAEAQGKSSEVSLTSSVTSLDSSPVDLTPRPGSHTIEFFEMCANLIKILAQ
T2 sequence (O43741 whole entry partner): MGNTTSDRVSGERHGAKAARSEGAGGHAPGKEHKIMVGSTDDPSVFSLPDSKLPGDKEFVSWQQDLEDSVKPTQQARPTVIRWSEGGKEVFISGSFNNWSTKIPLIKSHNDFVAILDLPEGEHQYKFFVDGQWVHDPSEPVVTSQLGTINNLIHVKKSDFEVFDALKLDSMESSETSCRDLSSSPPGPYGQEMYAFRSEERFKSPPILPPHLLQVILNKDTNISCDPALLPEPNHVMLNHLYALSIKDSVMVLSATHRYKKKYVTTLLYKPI
T2 sequence (P54619 whole entry partner): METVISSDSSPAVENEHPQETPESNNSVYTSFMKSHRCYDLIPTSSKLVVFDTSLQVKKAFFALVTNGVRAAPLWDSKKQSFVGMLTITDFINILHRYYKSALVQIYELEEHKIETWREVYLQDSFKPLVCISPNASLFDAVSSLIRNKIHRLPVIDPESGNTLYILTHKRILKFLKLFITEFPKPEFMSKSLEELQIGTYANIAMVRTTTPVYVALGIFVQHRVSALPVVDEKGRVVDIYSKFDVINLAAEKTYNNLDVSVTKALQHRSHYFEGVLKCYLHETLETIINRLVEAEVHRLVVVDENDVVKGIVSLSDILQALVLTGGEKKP
Chain of recombinant human AMPK (pT172 AMPKα1, pS108 AMPKβ1) (Q13131 whole entry, canonical isoform): as the sequence (Q13131 whole entry) above
Chain of recombinant human AMPK (pT172 AMPKα1, pS108 AMPKβ1) (O43741 whole entry partner, canonical isoform): as the sequence (O43741 whole entry partner) above
Chain of recombinant human AMPK (pT172 AMPKα1, pS108 AMPKβ1) (P54619 whole entry partner, canonical isoform): as the sequence (P54619 whole entry partner) above

| SMILES | induction of autophagy (CYTO-ID) (HCT116 p53+/+) | % Inhibition, Mean [1] | mean % activity [1] | % Activity remaining compared to 100% DMSO controls, individual replicates ([2]; ATP conc 0.5 µM) | Mean Activity (%) remaining compared to 100% DMSO controls ([2]; ATP conc 0.5 µM) | % Activity remaining compared to 100% DMSO controls, individual replicates ([2]; ATP conc 2 µM) | Mean Activity (%) remaining compared to 100% DMSO controls ([2]; ATP conc 2 µM) | % Activity remaining compared to 100% DMSO controls, individual replicates ([2]; ATP conc 20 µM) | Mean Activity (%) remaining compared to 100% DMSO controls ([2]; ATP conc 20 µM) | % Activity remaining compared to 100% DMSO controls, individual replicates ([2]; ATP conc 200 µM) | Mean Activity (%) remaining compared to 100% DMSO controls ([2]; ATP conc 200 µM) | % Activity remaining compared to 100% DMSO controls, individual replicates ([2]; ATP conc 500 µM) | Mean Activity (%) remaining compared to 100% DMSO controls ([2]; ATP conc 500 µM) | T172P levels of AMPKα detectable by immunoblotting [3] | also measured |
| --- | --- | --- | --- | --- | --- | --- | --- | --- | --- | --- | --- | --- | --- | --- | --- |
| [Mn+2].[Mn+2].[Mn+2].c1ccc(-c2csc(NCCN(CCNc3nc(-c4ccccn4)cs3)CCNc3nc(-c4ccccn4)cs3)n2)nc1.c1ccc(-c2csc(NCCN(CCNc3nc(-c4ccccn4)cs3)CCNc3nc(-c4ccccn4)cs3)n2)nc1 [[L2Mn3]6+] | evident | – | – | – | – | – | – | – | – | – | – | – | – | – | – |
| CC(=O)[O-].CC(=O)[O-].CC(=O)[O-].CC(=O)[O-].CC(=O)[O-].CC(=O)[O-].[Zn+2].[Zn+2].[Zn+2].c1ccc(-c2csc(NCCN(CCNc3nc(-c4ccccn4)cs3)CCNc3nc(-c4ccccn4)cs3)n2)nc1.c1ccc(-c2csc(NCCN(CCNc3nc(-c4ccccn4)cs3)CCNc3nc(-c4ccccn4)cs3)n2)nc1 [[L2Zn3]6+] | barely detectable | 81% | 19% | 17.76% and 11.76% and 14.76% | 14.76% | 15.06% and 12.57% and 9.46% | 12.36% | 16.58% and 14.33% and 12.68% | 14.53% | 16.91% and 18.22% and 15.98% | 17.04% | 15.73% and 11.81% and 15.83% | 14.46% | significantly reduced | % Inhibition, Run 1 / Run 2 [1]: 83% and 79%; % Activity inhibition Mean ([1]; 10 µM): 81.0%; % Activity inhibition Run 1 ([1]; 10 µM): 83%; % Activity inhibition Run 2 ([1]; 10 µM): 79%; % Activity remaining Run 1 ([1]; 10 µM): 17%; % Activity remaining Run 2 ([1]; 10 µM): 21%; % activity ([1]; duplicate runs): 17% and 21% |
| [Cu+2].[Cu+2].[Cu+2].c1ccc(-c2csc(NCCN(CCNc3nc(-c4ccccn4)cs3)CCNc3nc(-c4ccccn4)cs3)n2)nc1.c1ccc(-c2csc(NCCN(CCNc3nc(-c4ccccn4)cs3)CCNc3nc(-c4ccccn4)cs3)n2)nc1 [[L2Cu3]6+] | – | 79% | 21% | 12.56% and 14.65% and 16.05% | 14.42% | 15.11% and 18.68% and 17.31% | 17.03% | 12.85% and 11.15% and 12.56% | 12.19% | 10.11% and 10.01% and 10.69% | 10.27% | 20.03% and 18.99% and 20.22% | 19.74% | significantly reduced | % Inhibition Run 1 [1]: 79.7%; % Inhibition Run 2 [1]: 79.1%; % activity ([1]; Run 1): 20.3%; % activity ([1]; Run 2): 20.9% |
